Measured values as given in patent publication US9242987B2, “Heterocyclyl pyrazolopyrimidine analogues as JAK inhibitors” (Cellzome Limited, priority 2009, dated 2016).

What was measured:
JAK2 = biological target: T1, JAK2 (Homo sapiens, UniProt O60674); test: Kinobeads assay, JAK2; type: binding; details: mixed Molt4/Ramos cell lysate, dot blot detection
T1 construct: endogenous in cells; host or cells: Mixed Molt4/Ramos lysate (1:2)
Outline: (§1)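 Competition pulldown: compound dilution series incubated 3 h in cold room with immobilized aminopyrido-pyrimidine beads and mixed Molt4/Ramos lysate (1:2, 10 mg/mL protein) in DP buffer pH 7.4 with NP40. Bead-bound JAK2/JAK3 eluted, quantified by antibody dot blot with infrared detection; IC50 from dose-response curves.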

JAK3 = biological target: T2, JAK3 (Homo sapiens, UniProt P52333); test: Kinobeads assay, JAK3; type: binding; details: mixed Molt4/Ramos cell lysate, dot blot detection
T2 construct: endogenous in cells; host or cells: Mixed Molt4/Ramos lysate (1:2)
T2 sequence (P52333 1-1124): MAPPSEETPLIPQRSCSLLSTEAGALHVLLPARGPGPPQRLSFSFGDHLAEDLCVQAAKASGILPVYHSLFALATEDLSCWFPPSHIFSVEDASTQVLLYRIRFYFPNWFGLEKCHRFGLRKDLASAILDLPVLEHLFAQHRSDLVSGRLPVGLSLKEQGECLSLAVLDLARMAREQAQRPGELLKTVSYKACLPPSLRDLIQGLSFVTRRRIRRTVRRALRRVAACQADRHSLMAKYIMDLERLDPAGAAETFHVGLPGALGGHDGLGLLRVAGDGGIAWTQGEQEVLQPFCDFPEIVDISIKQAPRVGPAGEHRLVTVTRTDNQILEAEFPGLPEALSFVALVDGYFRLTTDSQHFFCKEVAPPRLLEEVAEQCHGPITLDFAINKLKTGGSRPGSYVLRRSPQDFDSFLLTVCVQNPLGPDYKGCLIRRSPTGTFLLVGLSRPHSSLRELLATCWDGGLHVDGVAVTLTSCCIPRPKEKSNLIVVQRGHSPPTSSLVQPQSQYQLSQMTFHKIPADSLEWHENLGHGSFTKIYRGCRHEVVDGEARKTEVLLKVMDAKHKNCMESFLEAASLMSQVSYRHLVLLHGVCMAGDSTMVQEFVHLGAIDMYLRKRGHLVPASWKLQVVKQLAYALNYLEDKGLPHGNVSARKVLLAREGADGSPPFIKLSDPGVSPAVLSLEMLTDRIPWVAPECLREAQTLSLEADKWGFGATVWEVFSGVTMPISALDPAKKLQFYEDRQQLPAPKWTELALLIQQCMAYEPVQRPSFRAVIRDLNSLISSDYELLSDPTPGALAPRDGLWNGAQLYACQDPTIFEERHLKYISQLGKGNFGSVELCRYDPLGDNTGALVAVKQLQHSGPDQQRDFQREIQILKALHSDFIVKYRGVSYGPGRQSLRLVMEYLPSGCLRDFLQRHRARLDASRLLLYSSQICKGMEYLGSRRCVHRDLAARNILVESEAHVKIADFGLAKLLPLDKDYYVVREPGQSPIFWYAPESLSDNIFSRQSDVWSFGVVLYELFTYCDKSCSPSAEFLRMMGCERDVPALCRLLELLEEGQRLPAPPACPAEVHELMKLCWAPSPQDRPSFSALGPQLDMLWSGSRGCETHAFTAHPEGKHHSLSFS
Outline: as §1

T1 sequence (O60674 whole entry): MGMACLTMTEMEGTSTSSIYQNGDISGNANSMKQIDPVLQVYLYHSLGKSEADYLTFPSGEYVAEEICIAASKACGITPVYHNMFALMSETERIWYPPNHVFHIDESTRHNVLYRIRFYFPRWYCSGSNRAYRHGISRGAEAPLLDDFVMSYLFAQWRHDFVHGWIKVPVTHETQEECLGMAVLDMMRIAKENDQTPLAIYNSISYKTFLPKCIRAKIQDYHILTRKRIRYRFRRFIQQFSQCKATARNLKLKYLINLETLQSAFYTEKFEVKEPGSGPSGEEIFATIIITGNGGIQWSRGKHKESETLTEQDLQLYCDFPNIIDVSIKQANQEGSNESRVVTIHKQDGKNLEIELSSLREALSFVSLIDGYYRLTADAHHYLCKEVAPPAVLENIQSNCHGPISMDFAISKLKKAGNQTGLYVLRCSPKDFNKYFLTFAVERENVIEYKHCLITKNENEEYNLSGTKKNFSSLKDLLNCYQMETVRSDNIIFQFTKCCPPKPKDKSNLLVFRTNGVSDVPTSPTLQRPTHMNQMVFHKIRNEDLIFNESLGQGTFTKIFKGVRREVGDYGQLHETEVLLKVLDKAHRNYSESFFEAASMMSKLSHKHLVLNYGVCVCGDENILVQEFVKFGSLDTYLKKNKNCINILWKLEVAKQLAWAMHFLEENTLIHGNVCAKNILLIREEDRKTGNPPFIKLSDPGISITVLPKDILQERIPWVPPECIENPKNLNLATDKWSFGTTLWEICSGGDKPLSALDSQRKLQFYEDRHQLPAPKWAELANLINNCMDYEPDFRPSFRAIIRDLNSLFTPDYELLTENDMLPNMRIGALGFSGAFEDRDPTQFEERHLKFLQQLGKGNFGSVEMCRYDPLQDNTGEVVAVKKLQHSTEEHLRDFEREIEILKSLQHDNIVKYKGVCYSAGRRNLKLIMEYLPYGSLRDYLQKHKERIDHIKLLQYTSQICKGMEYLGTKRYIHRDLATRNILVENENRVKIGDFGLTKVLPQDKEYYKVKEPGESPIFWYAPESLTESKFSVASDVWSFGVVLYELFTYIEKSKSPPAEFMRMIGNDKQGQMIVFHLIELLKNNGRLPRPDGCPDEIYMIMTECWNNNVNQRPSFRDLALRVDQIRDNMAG

With `CO[C@@H](C)COc1cccc(Cn2ncc3cnc(Nc4cnn(C)c4)nc32)c1` [Example 171, (S)-1-(3-(2-Methoxypropoxy)benzyl)-N-(1-methyl-1H-pyrazol-4-yl)-1H-pyrazolo[3,4-d]pyrimidin-6-amine] the IC50 (JAK2) was ≥ 10000 nM and the IC50 (JAK3) was < 100 nM.
For `Cn1cc(Nc2ncc3cnn(Cc4cccc(OCC5CC5)c4)c3n2)cn1` [Example 172, 1-(3-(Cyclopropylmethoxy)benzyl)-N-(1-methyl-1H-pyrazol-4-yl)-1H-pyrazolo[3,4-d]pyrimidin-6-amine], the IC50 (JAK2) was ≥ 10000 nM and the IC50 (JAK3) was 100 to 1000 nM.
For `Cn1cc(Nc2ncc3cnn(Cc4ccccc4OCC4CC4)c3n2)cn1` [Example 173, 1-(2-(Cyclopropylmethoxy)benzyl)-N-(1-methyl-1H-pyrazol-4-yl)-1H-pyrazolo[3,4-d]pyrimidin-6-amine], the IC50 (JAK2) was 1000 to 10000 nM and the IC50 (JAK3) was 100 to 1000 nM.
`C[C@@H]1CN(c2cccc(Cn3ncc4cnc(Nc5cnn(C)c5)nc43)c2)C[C@H](C)O1` [Example 175, 1-(3-((2S,6R)-2,6-Dimethylmorpholino)benzyl)-N-(1-methyl-1H-pyrazol-4-yl)-1H-pyrazolo[3,4-d]pyrimidin-6-amine] was tested, and the IC50 (JAK2) was ≥ 10000 nM and the IC50 (JAK3) was 100 to 1000 nM.
In the case of `COCCOc1cccc(Cn2ncc3cnc(Nc4cnn(CC(F)F)c4)nc32)c1` [Example 176, N-(1-(2,2-Difluoroethyl)-1H-pyrazol-4-yl)-1-(3-(2-methoxyethoxy)benzyl)-1H-pyrazolo[3,4-d]pyrimidin-6-amine], the IC50 (JAK2) is reported as ≥ 10000 nM and the IC50 (JAK3) is reported as 100 to 1000 nM.
For `Fc1ccccc1Cn1ncc2cnc(Nc3cnn(CCCN4CCC4)c3)nc21` [Example 177, N-(1-(3-(Azetidin-1-yl)propyl)-1H-pyrazol-4-yl)-1-(2-fluorobenzyl)-1H-pyrazolo[3,4-d]pyrimidin-6-amine], the IC50 (JAK2) was 100 to 1000 nM and the IC50 (JAK3) was < 100 nM.
For `Cn1cc(Nc2ncc3cnn(Cc4cccc(Cl)c4Cl)c3n2)cn1` [Example 178, 1-(2,3-Dichlorobenzyl)-N-(1-methyl-1H-pyrazol-4-yl)-1H-pyrazolo[3,4-d]pyrimidin-6-amine], the IC50 (JAK2) was 1000 to 10000 nM and the IC50 (JAK3) was < 100 nM.
For `Cc1c(O)cccc1Cn1ncc2cnc(Nc3cnn(C)c3)nc21` [Example 179], the IC50 (JAK2) was 1000 to 10000 nM and the IC50 (JAK3) was < 100 nM.
With `Cn1cc(Nc2ncc3cnn(Cc4ccccc4N4CCOCC4)c3n2)cn1` [Example 180, N-(1-Methyl-1H-pyrazol-4-yl)-1-(2-morpholinobenzyl)-1H-pyrazolo[3,4-d]pyrimidin-6-amine] the IC50 (JAK2) was 100 to 1000 nM and the IC50 (JAK3) was 100 to 1000 nM.
With `Cn1cc(Nc2ncc3cnn(Cc4cccc(OC5CCOC5)c4)c3n2)cn1` (stereo not drawn) [Example 181, N-(1-Methyl-1H-pyrazol-4-yl)-1-(3-((tetrahydrofuran-3-yl)oxy)benzyl)-1H-pyrazolo[3,4-d]pyrimidin-6-amine] the IC50 (JAK2) was ≥ 10000 nM and the IC50 (JAK3) was < 100 nM.
In the case of `Fc1ccccc1Cn1ncc2cnc(Nc3cnn(CCN4CCNCC4)c3)nc21` [Example 182, 1-(2-Fluorobenzyl)-N-(1-(2-(piperazin-1-yl)ethyl)-1H-pyrazol-4-yl)-1H-pyrazolo[3,4-d]pyrimidin-6-amine], the IC50 (JAK2) is reported as 100 to 1000 nM and the IC50 (JAK3) is reported as < 100 nM.
`CN(C)c1cccc(Cn2ncc3cnc(Nc4cnn(C)c4)nc32)n1` [Example 183] was tested, and the IC50 (JAK2) was ≥ 10000 nM and the IC50 (JAK3) was 100 to 1000 nM.
In the case of `COCCOc1cccc(Cn2ncc3cnc(Nc4cnn(CCCN(C)C)c4)nc32)c1` [Example 184, N-(1-(3-(Dimethylamino)propyl)-1H-pyrazol-4-yl)-1-(3-(2-methoxyethoxy)benzyl)-1H-pyrazolo[3,4-d]pyrimidin-6-amine], the IC50 (JAK2) is reported as 1000 to 10000 nM and the IC50 (JAK3) is reported as < 100 nM.
In the case of `COCCOc1cccc(Cn2ncc3cnc(Nc4cnn(C)c4)nc32)c1C` [Example 185, 1-(3-(2-Methoxyethoxy)-2-methylbenzyl)-N-(1-methyl-1H-pyrazol-4-yl)-1H-pyrazolo[3,4-d]pyrimidin-6-amine], the IC50 (JAK2) is reported as ≥ 10000 nM and the IC50 (JAK3) is reported as < 100 nM.
`Cn1cc(Nc2ncc3cnn(Cc4cccc(N[C@@H]5CCOC5)n4)c3n2)cn1` [Example 187, (R)—N-(1-Methyl-1H-pyrazol-4-yl)-1-((6-((tetrahydrofuran-3-yl)amino)pyridin-2-yl)methyl)-1H-pyrazolo[3,4-d]pyrimidin-6-amine] was tested, and the IC50 (JAK2) was ≥ 10000 nM and the IC50 (JAK3) was < 100 nM.
In the case of `Cn1cc(Nc2ncc3cnn(Cc4cccc(N5CCCC5)n4)c3n2)cn1` [Example 188, N-(1-Methyl-1H-pyrazol-4-yl)-1-((6-(pyrrolidin-1-yl)pyridin-2-yl)methyl)-1H-pyrazolo[3,4-d]pyrimidin-6-amine], the IC50 (JAK2) is reported as ≥ 10000 nM and the IC50 (JAK3) is reported as 100 to 1000 nM.
With `Cc1ccc(O)cc1Cn1ncc2cnc(Nc3cnn(C)c3)nc21` [Example 189] the IC50 (JAK2) was ≥ 10000 nM and the IC50 (JAK3) was 100 to 1000 nM.
With `CN1CCCC(Cn2cc(Nc3ncc4cnn(Cc5ccccc5F)c4n3)cn2)C1` (stereo not drawn) [Example 192, 1-(2-Fluorobenzyl)-N-(1-((1-methylpiperidin-3-yl)methyl)-1H-pyrazol-4-yl)-1H-pyrazolo[3,4-d]pyrimidin-6-amine] the IC50 (JAK2) was 100 to 1000 nM and the IC50 (JAK3) was < 100 nM.
With `Cn1cc(Nc2ncc3cnn(Cc4cccc(OC[C@H]5CCCO5)n4)c3n2)cn1` [Example 193, (R)—N-(1-Methyl-1H-pyrazol-4-yl)-1-((6-((tetrahydrofuran-2-yl)methoxy)pyridin-2-yl)methyl)-1H-pyrazolo[3,4-d]pyrimidin-6-amine] the IC50 (JAK2) was ≥ 10000 nM and the IC50 (JAK3) was < 100 nM.
`CN1CCN(CCCn2cc(Nc3ncc4cnn(Cc5ccccc5F)c4n3)cn2)CC1` [Example 194, 1-(2-Fluorobenzyl)-N-(1-(3-(4-methylpiperazin-1-yl)propyl)-1H-pyrazol-4-yl)-1H-pyrazolo[3,4-d]pyrimidin-6-amine] was tested, and the IC50 (JAK2) was ≥ 10000 nM and the IC50 (JAK3) was 100 to 1000 nM.
With `OCCn1cc(Nc2ncc3cnn(Cc4c(F)c(F)cc(F)c4F)c3n2)cn1` [Example 196, 2-(4-((1-(2,3,5,6-Tetrafluorobenzyl)-1H-pyrazolo[3,4-d]pyrimidin-6-yl)amino)-1H-pyrazol-1-yl)ethanol] the IC50 (JAK2) was 100 to 1000 nM and the IC50 (JAK3) was < 100 nM.
With `COCCNC(=O)c1cccc(Cn2ncc3cnc(Nc4cnn(C)c4)nc32)c1` [Example 200] the IC50 (JAK2) was ≥ 10000 nM and the IC50 (JAK3) was < 100 nM.
For `Cn1cc(Nc2ncc3cnn(Cc4cccc(-c5ccnc(N)c5)c4)c3n2)cn1` [Example 206, 1-(3-(2-Aminopyridin-4-yl)benzyl)-N-(1-methyl-1H-pyrazol-4-yl)-1H-pyrazolo[3,4-d]pyrimidin-6-amine], the IC50 (JAK2) was ≥ 10000 nM and the IC50 (JAK3) was 100 to 1000 nM.
`Cn1cc(Nc2ncc3cnn(Cc4cccc(N5CC[C@@H](O)C5)n4)c3n2)cn1` [Example 208, (R)-1-(6-((6-((1-Methyl-1H-pyrazol-4-yl)amino)-1H-pyrazolo[3,4-d]pyrimidin-1-yl)methyl)pyridin-2-yl)pyrrolidin-3-ol] was tested, and the IC50 (JAK2) was ≥ 10000 nM and the IC50 (JAK3) was < 100 nM.
For `Cn1cc(Nc2ncc3cnn(Cc4cccc(OCC(N)=O)c4)c3n2)cn1` [Example 209], the IC50 (JAK2) was 1000 to 10000 nM and the IC50 (JAK3) was < 100 nM.
For `Cn1cc(Nc2ncc3cnn(Cc4cccc(C5=CCOCC5)c4)c3n2)cn1` [Example 218, 1-(3-(3,6-Dihydro-2H-pyran-4-yl)benzyl)-N-(1-methyl-1H-pyrazol-4-yl)-1H-pyrazolo[3,4-d]pyrimidin-6-amine], the IC50 (JAK2) was ≥ 10000 nM and the IC50 (JAK3) was < 100 nM.
For `Cn1cc(Nc2ncc3cnn(-c4ccc5c(c4)NC(=O)CO5)c3n2)cn1` [Example 219, 6-(6-((1-Methyl-1H-pyrazol-4-yl)amino)-1H-pyrazolo[3,4-d]pyrimidin-1-yl)-2H-benzo[b][1,4]oxazin-3(4H)-one], the IC50 (JAK2) was 100 to 1000 nM and the IC50 (JAK3) was < 100 nM.
`Cn1cc(Nc2ncc3cnn(Cc4cccc5ccccc45)c3n2)cn1` [Example 220, N-(1-Methyl-1H-pyrazol-4-yl)-1-(naphthalen-1-ylmethyl)-1H-pyrazolo[3,4-d]pyrimidin-6-amine] gave an IC50 (JAK2) of 1000 to 10000 nM and an IC50 (JAK3) of 100 to 1000 nM.
`Cn1cc(Nc2ncc3cnn(Cc4ccccc4OCCOCc4ccccc4)c3n2)cn1` [Example 221, 1-(2-(2-(Benzyloxy)ethoxy)benzyl)-N-(1-methyl-1H-pyrazol-4-yl)-1H-pyrazolo[3,4-d]pyrimidin-6-amine] showed an IC50 (JAK2) of 1000 to 10000 nM and an IC50 (JAK3) of 100 to 1000 nM.
For `Cn1cc(Nc2ncc3cnn(Cc4cccc(OCCOCc5ccccc5)c4)c3n2)cn1` [Example 222, 1-(3-(2-(Benzyloxy)ethoxy)benzyl)-N-(1-methyl-1H-pyrazol-4-yl)-1H-pyrazolo[3,4-d]pyrimidin-6-amine], the IC50 (JAK2) was ≥ 10000 nM and the IC50 (JAK3) was 100 to 1000 nM.
